Laboratory results as given in the SangsterLogP compilation.

Assay: not given
Details: pH 2.0
`O=C(/C=C/c1cccs1)Nc1ccc(I)cc1` showed a logD of 4.67.
For `CC[C@@H](OC(=O)CNC(=O)c1ccc(N2C(=O)c3ccccc3C2=O)cc1)C(=O)c1ccccc1`, the logD was 4.15.
`CC(C)N(Cc1nnc(-c2ccc(Cl)cc2)o1)C(=O)[C@@H]1COc2ccccc2O1` showed a logD of 4.09.
With `O=C(/C=C/c1ccco1)Nc1ccccc1NC(=O)/C=C/c1ccco1` the logD was 3.79.

Same assay, conditions: pH 5.0
With `CC(=O)Nc1ccc(C(=O)N(Cc2ccco2)C2(C(=O)Nc3c(C)cccc3C)CCCCC2)cc1` the logD was 4.62.
`OCC#CC(O)(c1ccc(F)cc1)c1ccc(F)cc1` gave a logD of 3.61.
In the case of `COc1ccc(C(=O)/C=C/Nc2ccc(Cl)c(C(F)(F)F)c2)cc1OC`, the logD is reported as 5.31.
In the case of `CCOC(=O)c1c(N2C(=O)[C@@H]3CC(C)=C(C)C[C@H]3C2=O)sc(C)c1C`, the logD is reported as 4.56.
With `CCC(=O)N1c2ccccc2NC2=C(C(=O)CC(C)(C)C2)[C@H]1c1ccc(-c2ccc([N+](=O)[O-])cc2Cl)o1` the logD was 5.55.
`CCCS(=O)(=O)c1c(S(=O)(=O)CCC)c2c3ccccc3ccn2c1C(=O)c1ccccc1` showed a logD of 4.48.
Compound `COc1cc2c(cc1OC)[C@@H](COc1ccc(F)cc1)N(C(=O)/C=C/c1ccccc1)CC2` has a logD of 5.45.
In the case of `Cc1c(N[C@@H](NC(=O)c2cccc([N+](=O)[O-])c2)C(Cl)(Cl)Cl)c(=O)n(-c2ccccc2)n1C`, the logD is reported as 3.99.
`CS(=O)(=O)N(CC(=O)N1CCc2ccccc2C1)c1ccc(OCc2ccccc2)cc1` showed a logD of 4.91.
Compound `CC1=C(C)C[C@@H]2C(=O)N(c3cccc(Br)c3)C(=O)[C@H]2C1` has a logD of 3.93.
For `CCOC(=O)C1=C(C)NC(=O)C[C@@H]1c1cc(OC)c(OC)cc1Br`, the logD was 3.93.
Compound `Cc1c(CN(C)C(=O)[C@@H](C)n2nc(C(F)F)c(Br)c2C)cnn1C` has a logD of 3.12.

Same assay, conditions: pH 6.5
`O=P(Oc1ccccc1)(Oc1ccccc1)O[C@@H]1C=CS(=O)(=O)C1` gave a logD of 2.48.

Same assay, conditions: pH 7.3
`CSc1ncc2c(n1)-c1c(SC)sc(C(=O)Nc3ccc(Cl)cc3)c1CC2` gave a logD of 5.87.
In the case of `CC(C)[C@@H](C(=O)Nc1nc(-c2ccc(S(=O)(=O)N3CCOCC3)cc2)cs1)N1C(=O)c2ccccc2C1=O`, the logD is reported as 5.32.
`Cc1cc(C)n(-c2ccc(-n3cccc3/C=C(\C#N)S(C)(=O)=O)cc2)n1` showed a logD of 4.25.
In the case of `CCOc1ccc([C@@H]2Oc3nc(SC)nnc3-c3ccccc3N2C(=O)CC)cc1OC`, the logD is reported as 3.95.
Work on `O=C(c1cccc(S(=O)(=O)N2CCOCC2)c1)N1CCN(c2cccc(Cl)c2)CC1` yielded a logD of 4.34.

Same assay, conditions: pH 8.0
In the case of `CCCc1[nH]nc2c1[C@@]1(C(=O)N(CC(N)=O)c3ccccc31)C(C(=O)OC)=C(N)O2`, the logD is reported as 4.48.
`CCc1cccc(C)c1N(C(=O)Cn1c([C@@H](C)O)nc2ccccc21)[C@@H](C)COC` showed a logD of 4.48.

Same assay, conditions: pH 10.0
In the case of `CCOC(=O)C1=C(N)N2C(=O)[C@H](C)SC2=C(C(=O)OCC)[C@H]1c1ccc(Cl)cc1Cl`, the logD is reported as 5.49.
For `CCOCCOC(=O)C1=C(C)NC2=C(C(=O)CCC2)[C@@H]1c1ccc(C)cc1`, the logD was 3.89.
For `CCSCCOC(=O)C1=C(C)NC2=C(C(=O)C[C@@H](c3cccs3)C2)[C@@H]1c1ccc(C(=O)OC)cc1`, the logD was 5.24.
Work on `CCOCCOC(=O)[C@H](C)n1cnc2sc3c(c2c1=O)CC[C@H](C)C3` yielded a logD of 4.25.
With `CCn1c(SCC(=O)NC(C)(C)C)nnc1C1CCCCC1` the logD was 3.2.

Same assay, conditions: pH 10.5
`Cc1ccc(NCc2ccc3n2C/C(=C2/CCn4c(CNc5ccc(C)cc5)ccc42)C3=O)cc1` showed a logD of 6.51.
Compound `Nc1nc(O/N=C/c2ccc([N+](=O)[O-])cc2)nc(N2CCOCC2)n1` has a logD of 3.18.

Assay: method code SF, from DOI: 10.1016/j.ejps.2012.10.019, PMID: 23131797
Details: pH 2.0
For `O=C(OCc1c(F)cccc1Cl)c1cccc(S(=O)(=O)N2CCCC2)c1`, the logD was 4.22.
Compound `Cc1cccc(C)c1NC(=O)CNC(=O)C1CCN(S(=O)(=O)c2cccc(Cl)c2Cl)CC1` has a logD of 3.41.
Work on `CC(=O)c1sc(SCCOc2ccccc2)nc1C` yielded a logD of 3.86.
For `Cc1[nH]c2ccccc2c1C1=CN2CCS(=O)(=O)N=C2S1`, the logD was 1.56.
With `Cc1c(NC(=O)CC(c2ccccc2)c2ccccc2)cccc1-n1cnnn1` the logD was 3.2.

Same assay, conditions: pH 5.0
`Cc1ccc(SCC(=O)NCc2cccc(CNC(=O)CSc3ccc(C)cc3)c2)cc1` showed a logD of 5.08.
`CCOc1ccc(NC(=O)CSc2nc3ccsc3c(=O)n2-c2ccccc2)cc1` gave a logD of 4.33.
For `FC(F)(F)c1ccc(-n2cc3ccccc3n2)cc1`, the logD was 4.42.
Work on `CCCN(CC1CC1)C(=S)Nc1cc([N+](=O)[O-])ccc1Cl` yielded a logD of 4.1.
With `CCCCCC(=O)NC1(CCC)CCCC1` the logD was 4.28.
Work on `C=CCn1c(C)c(C=C2C(=O)OC3(CCCCC3)OC2=O)c2ccccc21` yielded a logD of 4.62.
For `O=C(COC(=O)c1ccccc1F)Nc1ccccc1`, the logD was 3.18.
With `CCCCOc1ccc(C(=O)Oc2ccc3c(c2)OCO3)cc1OC` the logD was 4.77.
Work on `CCCC(=O)N1CC2(C)CN(C(=O)CCC)CC(C)(C1)C2` yielded a logD of 2.69.
`CCOc1nc(C#N)nc(N2CCOCC2)n1` showed a logD of 2.46.
`O=C(Nc1ccccc1C(F)(F)F)NC1CCCCC1` showed a logD of 4.
`N#CCc1nc(-c2ccc3c(c2)OCCO3)cs1` showed a logD of 2.92.
`CCC(CC)NC(=O)c1ccc(Cl)c(S(=O)(=O)N2CCCC2)c1` gave a logD of 3.6.
With `CCCC(=O)OCC(=O)Nc1ccc(F)cc1Cl` the logD was 3.02.
`COc1ccc(C)cc1-n1nnnc1SCC(=O)Nc1cc(C(N)=O)cc(C(N)=O)c1` gave a logD of 4.15.
For `O=C(COC(=O)c1cccc(N2C(=O)c3ccccc3C2=O)c1)c1ccc(F)cc1`, the logD was 4.68.
With `Cc1ccc(-n2c(=O)c3cc4c(=O)n(-c5ccc(C)c(C)c5)c(=O)c4cc3c2=O)cc1C` the logD was 4.83.
In the case of `O=C(CSc1nnc(-c2cccs2)o1)NCCN1C(=O)CSC1=O`, the logD is reported as 2.31.
`O=C(CS(=O)(=O)Cc1ccccc1)Nc1ccc2c(c1)OCCO2` gave a logD of 3.19.
`COc1ccc(N2C(=O)Cc3ccccc3C2=O)cc1` gave a logD of 2.56.
Work on `COc1ccc(-c2nnc(SCc3cc(=O)oc4ccc5ccccc5c34)n2N)cc1` yielded a logD of 4.24.
`COc1ccccc1Nc1nc(OCC(F)(F)F)nc(OCC(F)(F)F)n1` showed a logD of 5.27.
`O=C1CCCC2=C1C(c1ccc(OCc3ccccc3F)cc1)C1=C(CCCC1=O)O2` showed a logD of 4.92.
Work on `Cn1ncc(Br)c1C(=O)N1CCCCCC1` yielded a logD of 2.63.
With `O=C1c2ccccc2C(=O)N1c1ccccc1S(=O)C(F)(F)F` (stereo not given) the logD was 3.3.
Work on `CN(C1=NS(=O)(=O)c2ccccc21)c1ccc(OC(=O)c2ccccc2)cc1` yielded a logD of 4.26.
For `CCc1ccc(OCC(=O)NCCc2ccc(OC)c(OC)c2)cc1`, the logD was 4.22.
`CCn1ccc(CN(C)C(=O)c2ccccc2COc2ccc(F)cc2F)n1` showed a logD of 4.43.
For `Cc1ccc(NC(=O)c2ccc(S(=O)(=O)N3CCOCC3)cc2)c(C(=O)c2ccccc2)c1`, the logD was 4.54.
In the case of `COc1ccc(C(=O)Nc2cccc(F)c2)cc1S(=O)(=O)N1CCOCC1`, the logD is reported as 3.64.
In the case of `NC(=O)C1CCN(C(=O)c2ccc3c(=O)n(Cc4ccco4)c(SCC(=O)c4ccccc4)nc3c2)CC1`, the logD is reported as 5.31.
Work on `CC(Sc1nc2ccccc2c(=O)n1-c1ccc(F)cc1)C(=O)NCc1ccc2c(c1)OCO2` (stereo not given) yielded a logD of 4.63.
`CCCCC(=O)NC1C2CC3CC(C2)CC1C3` (stereo not given) gave a logD of 3.8.
With `O=C(Cn1cc(C(F)(F)F)cc(Cl)c1=O)N1CCN(C(=O)c2ccco2)CC1` the logD was 2.27.
Compound `COc1cc2c(cc1OC)CN(C(=O)c1cccc(S(=O)(=O)N3CCCCC3)c1)CC2` has a logD of 4.2.
`COC(=O)C1=C(C)NC(C)=C(C(=O)OC)C1c1cn(-c2ccccc2)nc1-c1cccc([N+](=O)[O-])c1` showed a logD of 5.04.
`CC(C)N(Cc1nc(-c2ccccc2)no1)C(=O)c1ccccc1CCc1ccccc1` gave a logD of 5.98.

Same assay, conditions: pH 6.5
`CC(=O)N1CC(=O)N(CC(=O)N(Cc2ccccc2)c2nc(-c3ccccc3)cs2)C1=S` showed a logD of 4.43.
Work on `N#CC(=Cc1ccc2c(c1)OCO2)C(=O)NCc1cccc(CNC(=O)C(C#N)=Cc2ccc3c(c2)OCO3)c1` yielded a logD of 4.92.
Work on `C=CCNC(=O)CSc1nc(C(F)F)cc(-c2cn(C)nc2C)c1C#N` yielded a logD of 3.74.
Work on `COc1ccc(-c2nnc(N)s2)cc1OC` yielded a logD of 2.34.
Compound `CC(C)(C)c1cc(C(F)(F)F)nc(SCCNC(=O)C2CCCCC2)n1` has a logD of 5.77.
With `COC(=O)c1c(NC(NC(=O)c2cccnc2)(C(F)(F)F)C(F)(F)F)sc2c1CCCCC2` the logD was 5.75.
`COCCn1c(C)cc(C(=O)CSc2ncnc3sc(C)c(C)c23)c1C` showed a logD of 4.59.
`Cc1c(C)c(C)c(CSc2nnc(CC#N)n2C)c(C)c1C` gave a logD of 4.14.
Compound `CN1C(=CC=CC(=O)C(F)(F)F)C(C)(C)c2ccccc21` has a logD of 4.41.
Compound `O=C(CC1Nc2ccccc2NC1=O)Nc1ccccc1NC(=O)CC1Nc2ccccc2NC1=O` (stereo not given) has a logD of 3.42.

Same assay, conditions: pH 7.0
With `NNc1c(F)c(F)nc(F)c1F` the logD was 0.86.

Same assay, conditions: pH 7.3
Compound `Cc1cccc(NC(=O)CSc2ccccn2)c1C` has a logD of 3.19.
In the case of `n1onc2c1NC1Nc3nonc3NC1N2` (stereo not given), the logD is reported as 0.3.
For `COc1cc(OC)c(C2C3=C(CCCC3=O)Nc3ncnn32)cc1OC` (stereo not given), the logD was 2.19.
Compound `CCn1c(SCC(=O)Nc2ccc(C(=O)OC)cc2)nnc1-c1ccccc1` has a logD of 4.24.
With `C=CCn1c(SCC(=O)Nc2ccc(C)c(F)c2)nnc1-c1cccs1` the logD was 4.48.
Compound `C=C(c1ccc(N(C)C)cc1)c1ccc(N(C)C)cc1` has a logD of 5.3.
In the case of `Cn1c(C(=O)N2CCC3(CC2)OCCO3)cc2c(=O)n3ccccc3nc21`, the logD is reported as 2.87.
In the case of `Cn1c(SCC(=O)NC2CCCCCC2)nnc1-c1ccc(Cl)cc1`, the logD is reported as 4.21.
Compound `COc1ccccc1NC(=O)C1=C(C)Nc2nc(SCc3ccccc3F)nn2C1c1ccncc1` (stereo not given) has a logD of 4.66.

Same assay, conditions: pH 8.0
`CCOC(=O)c1nc(N)sc1C` showed a logD of 1.74.

Same assay, conditions: pH 10.0
Work on `Cc1cc(C)c(NC(=O)CSc2nnc(-c3ccc(OC(F)F)cc3)n2N)c(C)c1` yielded a logD of 4.41.
Work on `Nc1nc2nc3nc(N)sc3cc2s1` yielded a logD of 1.56.
With `CCc1noc(-c2[nH]c3ccccc3c2C(=O)C(=O)N(C)C)c1C` the logD was 2.68.

Same assay, conditions: pH 10.5
`CCNc1nc(NC(C)C)nc(Oc2ccc(OCC)nn2)n1` showed a logD of 3.14.
For `CCn1cc(C2C3=C(CC(C)(C)CC3=O)N(c3ccc(C)cc3)C3=C2C(=O)CC(C)(C)C3)c(C)n1`, the logD was 5.35.
`Cn1c(=O)c(C(=O)CN2CCSc3ccccc32)c(N)n(Cc2ccccc2)c1=O` gave a logD of 4.71.
`O=C(c1cc2ccccc2s1)N1CCCN(c2ccc(C(F)(F)F)cn2)CC1` gave a logD of 4.92.
For `COc1ccc(-c2nnc(SCC(=O)c3c(N)n(C)c(=O)n(C)c3=O)n2-c2cccc(C(F)(F)F)c2)cc1`, the logD was 4.89.
With `Cn1c(N)c(C(=O)CSc2nc3ccccc3nc2SCC(=O)c2c(N)n(C)c(=O)n(C)c2=O)c(=O)n(C)c1=O` the logD was 2.59.
`CCN(CC)c1ccc(C=C2C(=O)c3ccccc3C2=O)c(OC)c1` gave a logD of 5.05.
In the case of `CC(C)(C)c1cc(-c2nc(-c3ccc(C(F)(F)F)cn3)no2)n(Cc2ccccc2)n1`, the logD is reported as 6.58.
